According to patent publication US20230312584A1, “SALT OF NUCLEOSIDE ANALOG, AND CRYSTAL FORM, PHARMACEUTICAL COMPOSITION AND USE THEREOF” (priority 2020, published 2023):
Converted amounts (≈) assume the structure as drawn. Where a name gives a salt, the structure may show the parent alone. Read-outs that look alike come from different tables or passages of the source.

Columns and labels:
physchem = type: physicochemical; conditions: for Solubility in water: 30 min
Method: About 10 mg of the test product is taken and put in a 1.5 mL sample tube, to which 1 mL of deionized water is added, and then the sample tube is placed in a constant temperature mixer and shaken at 37° C. for 30 minutes; after shaking, the sample tube is placed in a centrifuge to undergo centrifugation for 2 minutes. Then, 500 μL of the supernatant is taken and diluted with acetonitrile to an appropriate concentration, which is used as a test sample solution for HPLC analysis.
An appropriate amount of sample was weighed and put in a glass test tube, to which a selected solvent was gradually added. The clarification process was observed.

SARS-CoV-2 = conditions: according to experimental tests; compounds of CN 202010313870.X; cited from earlier work
[1] = system: a variety of other RNA viruses; conditions: according to experimental tests; compounds of CN 202010313870.X; cited from earlier work
[2] = type: physicochemical
Method: The test product is placed in suitable clean containers, and then placed under conditions of high temperature (80° C.), high humidity (25° C., relative humidity 92.5%), and light (light intensity 4500±500 1× and 90 μw/cm^2), respectively, for 7 days, and samples are taken on the 7th day and tested according to the stability inspection items.

Hygroscopicity test = type: physicochemical; conditions: 25° C., RH80%, 24 hours
Method: An appropriate amount of a test product is taken and spread in a glass-stoppered weighing bottle that has been placed in an artificial climate box (temperature is 25° C.±1° C., relative humidity is 80%±2%) for 24 hours. The weighing bottle is opened, put together with the stopper in the artificial climate box (the temperature is 25° C.±1° C., the relative humidity is 80%±2%) for 24 hours, and then taken out. The moisture content of the test product before and after being placed in the artificial climate box is measured, and the hygroscopicity is measured by comparing the change in moisture content.

Question: Which water solubility (physchem) does the source give for `CC(C)C(=O)OC[C@H]1O[C@@](C#N)(c2ccc3c(N)ncnn23)[C@H](OC(=O)C(C)C)[C@@H]1OC(=O)C(C)C` [Compound W, (2R,3R,4R,5R)-2-(4-aminopyrrolo[2,1-f][1,2,4]triazin-7-yl)-2-cyano-5-(isobutyryloxymethyl)tetrahydrofuran-3,4-diyl bis(2-methylpropanoate)] here?
Answer: Its water solubility is “poor water solubility”.

Question: What about the anti-SARS-CoV-2 activity (SARS-CoV-2) of the same molecule?
Answer: Its anti-SARS-CoV-2 activity is “significant”.

Question: And the “inhibitory effect on a variety of other RNA viruses” value [1]?
Answer: The value was “good inhibitory effect”.

Question: For `[2H]c1cc([C@]2(C#N)O[C@H](COC(=O)C(C)C)[C@@H](OC(=O)C(C)C)[C@H]2OC(=O)C(C)C)n2ncnc(N)c12` [Compound Z, (2R,3R,4R,5R)-2-(4-aminopyrrolo[2,1-f][1,2,4]triazin-7-yl-5-d)-2-cyano-5-(isobutyryloxymethyl)tetrahydrofuran-3,4-diyl bis(2-methylpropanoate)], which water solubility (physchem) is on record?
Answer: Its water solubility is “poor water solubility”.

Question: And the Solubility in water (physchem)?
Answer: Its Solubility in water is 0.029 mg/mL (≈ 57.7 µM).

Question: And the anti-SARS-CoV-2 activity (SARS-CoV-2)?
Answer: Its anti-SARS-CoV-2 activity is “significant”.

Question: What about the “inhibitory effect on a variety of other RNA viruses” value [1] of the same molecule?
Answer: The value was “good inhibitory effect”.

Question: For `Br.CC(C)C(=O)OC[C@H]1O[C@@](C#N)(c2ccc3c(N)ncnn23)[C@H](OC(=O)C(C)C)[C@@H]1OC(=O)C(C)C` [Hydrobromide of Compound W, (2R,3R,4R,5R)-2-(4-aminopyrrolo[2,1-f][1,2,4]triazin-7-yl)-2-cyano-5-(isobutyryloxymethyl)tetrahydrofuran-3,4-diyl bis(2-methylpropanoate) hydrobromide], which Stability ([2]; 7 days) is on record?
Answer: The Stability was “Good stability under high temperature (80° C.), high”.

Question: And the Hygroscopicity (Hygroscopicity test)?
Answer: Its Hygroscopicity is “no hygroscopicity”.

Question: And the “increase in moisture content” value (Hygroscopicity test)?
Answer: Its value is “RH80%, with an increase in moisture content of <0.1%,”.

Question: For `Cl.[2H]c1cc([C@]2(C#N)O[C@H](COC(=O)C(C)C)[C@@H](OC(=O)C(C)C)[C@H]2OC(=O)C(C)C)n2ncnc(N)c12` [Hydrochloride of Compound Z, (2R,3R,4R,5R)-2-(4-aminopyrrolo[2,1-f][1,2,4]triazin-7-yl-5-d)-2-cyano-5-(isobutyryloxymethyl)tetrahydrofuran-3,4-diyl bis(2-methylpropanoate) hydrochloride], which “increase in moisture content” value (Hygroscopicity test) is on record?
Answer: The value was “moisture content of <0.1%”.

Question: And the Hygroscopicity (Hygroscopicity test; listed as hydrochloride of Compound Z, hydrochloride)?
Answer: Its Hygroscopicity is “no hygroscopicity”.

Question: Which results are given for `O=C(O)/C=C\C(=O)O.[2H]c1cc([C@]2(C#N)O[C@H](COC(=O)C(C)C)[C@@H](OC(=O)C(C)C)[C@H]2OC(=O)C(C)C)n2ncnc(N)c12` [Maleate of Compound Z, (2R,3R,4R,5R)-2-(4-aminopyrrolo[2,1-f][1,2,4]triazin-7-yl-5-d)-2-cyano-5-(isobutyryloxymethyl)tetrahydrofuran-3,4-diyl bis(2-methylpropanoate) maleate]?
Answer: solubility at 30 min (physchem; 37 °C, water, thermodynamic from solid, Solubility in water): 351 µg/mL; increase in moisture content (Hygroscopicity test): moisture content of <0.1%; Hygroscopicity (Hygroscopicity test; listed as maleate of Compound Z, maleate): no hygroscopicity

Question: Which Stability [2] does the source give for `[2H]c1cc([C@]2(C#N)O[C@H](COC(=O)C(C)C)[C@@H](OC(=O)C(C)C)[C@H]2OC(=O)C(C)C)n2ncnc(N)c12` [Mesylate of Compound Z, (2R,3R,4R,5R)-2-(4-aminopyrrolo[2,1-f][1,2,4]triazin-7-yl-5-d)-2-cyano-5-(isobutyryloxymethyl)tetrahydrofuran-3,4-diyl bis(2-methylpropanoate) mesylate] here?
Answer: The Stability was “decomposed obviously and had a peculiar smell”.

Question: What about the Solubility in water (physchem) of the same molecule?
Answer: The Solubility in water was 0.464 mg/mL.

Question: And the “increase in moisture content” value (Hygroscopicity test)?
Answer: The value was “moisture content of <0.2%”.

Question: And the Hygroscopicity (Hygroscopicity test; listed as mesylate of Compound Z, mesylate)?
Answer: Its Hygroscopicity is “no hygroscopicity”.

Question: With `[2H]c1cc([C@]2(C#N)O[C@H](COC(=O)C(C)C)[C@@H](OC(=O)C(C)C)[C@H]2OC(=O)C(C)C)n2ncnc(N)c12` [Nitrate of Compound Z, (2R,3R,4R,5R)-2-(4-aminopyrrolo[2,1-f][1,2,4]triazin-7-yl-5-d)-2-cyano-5-(isobutyryloxymethyl)tetrahydrofuran-3,4-diyl bis(2-methylpropanoate) nitrate] as the molecule, how does the Stability ([2]; 7 days) read?
Answer: The Stability was “(80° C.), the solid melted, decomposed,”.

Question: And the Hygroscopicity (Hygroscopicity test; listed as nitrate of Compound Z, nitrate)?
Answer: The Hygroscopicity was “no hygroscopicity”.

Question: And the “increase in moisture content” value (Hygroscopicity test; nitrate)?
Answer: Its value is “moisture content of <0.1%”.
